Earlier results, collected in patent US20190022229A1, “CANNABINOID/TERPENE ENRICHED CAPRYLIC ACID” (priority 2017, published 2019).

Details: over an eight-hour period; compared with capric acid (C10) alone; from Vandenberghe et al. 2016

Structure (SMILES): CCCCCCCC(=O)O [caprylic acid]
- increase in total plasma ketone levels relative to capric acid (C10) alone: approximately three times more
